Test results taken from patent US8436023B2, “Cyclohexyl-azetidinyl antagonists of CCR2” (Janssen Pharmaceutica N.V., priority 2010, dated 2013).
Where a name gives a salt, the structure may show the parent alone.

The compounds below were run against T1, CCR2 (Homo sapiens, UniProt P41597) (assay: MCP-1 Receptor Binding Assay in THP-1 Cells). Conditions: 0.5 nM 125I labeled MCP-1, 2 hours at 30° C., less polar isomer tested where stated, read-out: Inhibition of MCP-1 Binding IC50, CCR2 Binding.
T1 construct: host or cells: THP-1 human monocytic cells
T1 sequence (P41597 1-360 isoform P41597-2): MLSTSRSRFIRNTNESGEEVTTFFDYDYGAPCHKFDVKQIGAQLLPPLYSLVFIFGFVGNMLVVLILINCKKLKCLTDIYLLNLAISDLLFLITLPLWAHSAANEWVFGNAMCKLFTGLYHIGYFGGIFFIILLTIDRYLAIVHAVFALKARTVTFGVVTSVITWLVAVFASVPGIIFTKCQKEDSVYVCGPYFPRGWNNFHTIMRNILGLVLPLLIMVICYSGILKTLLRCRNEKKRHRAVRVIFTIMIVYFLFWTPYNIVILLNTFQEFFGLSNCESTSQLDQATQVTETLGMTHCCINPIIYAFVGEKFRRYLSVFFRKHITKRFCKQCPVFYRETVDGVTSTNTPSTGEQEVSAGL
Experimental: MCP-1 Receptor Binding Assay in THP-1 Cells
Human monocytic cell line THP-1 cells were obtained from American Type Culture Collection (Manassas, Va., USA). The THP-1 cells were grown in RPMI-1640 (RPMI: Roswell Park Memorial Institute Medium-cell culture growth media) supplemented with 10% fetal bovine serum in a humidified 5% CO2 atmosphere at 37° C. The cell density was maintained […].
THP-1 (cells were incubated with 0.5 nM ^125I labeled MCP-1 (Perkin-Elmer Life Sciences, Inc. Boston, Mass.) in the presence of varying concentrations of either unlabeled MCP-1 (R & D Systems, Minneapolis, Minn.) or test compound for 2 hours at 30° C. in a 96 well plate. Cells were then harvested onto a filter plate, dried, and 20 μL of Microscint 20 was added to each well. Plates were counted in a TopCount NXT, Microplate Scintillation & Luminescence Counter (Perkin-Elmer Life Sciences, Inc. Boston, Mass.). Blank values (buffer only) were subtracted from all values and drug treated values were compared to vehicle treated values. 1 μM cold MCP-1 was used for nonspecific binding.
Where an IC50 value was not obtained for a particular compound, the percent inhibition is provided at a test concentration of 25 μM.

IC50 [nM] | SMILES
8.4 | CCn1nc(NCC(=O)NC2CN(C3CCC(O)(c4cncs4)CC3)C2)c2cc(C(F)(F)F)ccc21 (stereo not drawn) [Example 67, 2-(1-Ethyl-5-trifluoromethyl-1H-indazol-3-ylamino)-N-[1-(4-hydroxy-4-thiazol-5-yl-cyclohexyl)-azetidin-3-yl]-acetamide]
14 | COc1ccc(C2CCC(N3CC(NC(=O)CNc4nn(C(=O)NC(C)C)c5ccc(C(F)(F)F)cc45)C3)CC2)cn1 (stereo not drawn) [Example 91, 3-[({1-[4-(6-Methoxy-pyridin-3-yl)-cyclohexyl]-azetidin-3-ylcarbamoyl}-methyl)-amino]-5-trifluoromethyl-indazole-1-carboxylic acid isopropylamide]
5900 | CC(C)C1CCC(N2CC(NC(=O)CNc3nn(Cc4ccccc4)c4ccc(C(F)(F)F)cc34)C2)CC1 (stereo not drawn) [Example 98, 2-(1-Benzyl-5-trifluoromethyl-1H-indazol-3-ylamino)-N-[1-(4-isopropyl-cyclohexyl)-azetidin-3-yl]-acetamide]
520 | N#CC1CCC(N2CC(NC(=O)CNc3nn(C(N)=O)c4ccc(C(F)(F)F)cc34)C2)CC1 (stereo not drawn) [Example 87, 3-({[1-(4-Cyano-cyclohexyl)-azetidin-3-ylcarbamoyl]-methyl}-amino)-5-trifluoromethyl-indazole-1-carboxylic acid amide]
430 | N#CC1CCC(N2CC(NC(=O)CNc3n[nH]c4ccc(C(F)(F)F)cc34)C2)CC1 (stereo not drawn) [Example 48, N-[1-(4-Cyano-cyclohexyl)-azetidin-3-yl]-2-(5-trifluoromethyl-1H-indazol-3-ylamino)-acetamide]
3600 | C=CCn1nc(NCC(=O)NC2CN(C3CCC(C4CCCCC4)CC3)C2)c2cc(C(F)(F)F)ccc21 (stereo not drawn) [Example 95, 2-(1-Allyl-5-trifluoromethyl-1H-indazol-3-ylamino)-N-(1-bicyclohexyl-4-yl-azetidin-3-yl)-acetamide]
390 | CCC1CCC(N2CC(NC(=O)CNc3noc4ccc(C(F)(F)F)cc34)C2)CC1 (stereo not drawn) [Example 12, N-[1-(4-Ethyl-cyclohexyl)-azetidin-3-yl]-2-(5-trifluoromethyl-benzo[d]isoxazol-3-ylamino)-acetamide]
300 | Cn1nc(NCC(=O)NC2CN(C3CCC(c4ccc5c(c4)OCO5)CC3)C2)c2cc(C(O)C(F)(F)F)ccc21 (stereo not drawn) [Example 64, N-[1-(4-Benzo[1,3]dioxol-5-yl-cyclohexyl)-azetidin-3-yl]-2-[1-methyl-5-(2,2,2-trifluoro-1-hydroxy-ethyl)-1H-indazol-3-ylamino]-acetamide]
10 | O=C(CNc1noc2ccc(OC(F)(F)F)cc12)NC1CN(C2CCC(c3ccc4c(c3)OCO4)CC2)C1 (stereo not drawn) [Example 15, N-[1-(4-Benzo[1,3]dioxol-5-yl-cyclohexyl)-azetidin-3-yl]-2-(5-trifluoromethoxy-benzo[d]isoxazol-3-ylamino)-acetamide]
31 | O=C(CNc1n[nH]c2ccc(C(F)(F)F)cc12)NC1CN(C2CCC(O)(c3cccnc3)CC2)C1 (stereo not drawn) [Example 41, N-[1-(4-Hydroxy-4-pyridin-3-yl-cyclohexyl)-azetidin-3-yl]-2-(5-trifluoromethyl-1H-indazol-3-ylamino)-acetamide]
230 | CCOC(=O)C1CCC(N2CC(NC(=O)CNc3nn(CC(F)(F)F)c4ccc(C(F)(F)F)cc34)C2)CC1 (stereo not drawn) [Example 72, 4-(3-{2-[1-(2,2,2-Trifluoro-ethyl)-5-trifluoromethyl-1H-indazol-3-ylamino]-acetylamino}-azetidin-1-yl)-cyclohexane carboxylic acid ethyl ester]
87 | CC(C)(C)OC(=O)NC1CCC(N2CC(NC(=O)CNc3n[nH]c4ccc(C(F)(F)F)cc34)C2)CC1 (stereo not drawn) [Example 51, (4-{3-[2-(5-Trifluoromethyl-1H-indazol-3-ylamino)-acetylamino]-azetidin-1-yl}-cyclohexyl)-carbamic acid tert-butyl ester]
29 | CCOC(=O)C1CCC(N2CC(NC(=O)CNc3noc4ccc(C(F)(F)F)cc34)C2)CC1 (stereo not drawn) [Example 6, 4-{3-[2-(5-Trifluoromethyl-benzo[d]isoxazol-3-ylamino)-acetylamino]-azetidin-1-yl}-cyclohexanecarboxylic acid ethyl ester]
340 | CC(C)C1CCC(N2CC(NC(=O)CNc3nn(C)c4ccc(OC(F)(F)F)cc34)C2)CC1 (stereo not drawn) [Example 59]
300 | Cn1nc(NCC(=O)NC2CN(C3CCC(C(=O)NCCO)CC3)C2)c2cc(C(F)(F)F)ccc21 (stereo not drawn) [Example 40, 4-{3-[2-(1-Methyl-5-trifluoromethyl-1H-indazol-3-ylamino)-acetylamino]-azetidin-1-yl}-cyclohexane carboxylic acid (2-hydroxy-ethyl)-amide]
44 | Cn1nc(NCC(=O)NC2CN(C3CCC(CO)CC3)C2)c2cc(C(F)(F)F)ccc21 (stereo not drawn) [Example 33, N-[1-(4-Hydroxymethyl-cyclohexyl)-azetidin-3-yl]-2-(1-methyl-5-trifluoromethyl-1H-indazol-3-ylamino)-acetamide]
2900 | NC1CCC(N2CC(NC(=O)CNc3noc4ccc(C(F)(F)F)cc34)C2)CC1 (stereo not drawn) [Example 11, N-[1-(4-Amino-cyclohexyl)-azetidin-3-yl]-2-(5-trifluoromethyl-benzo[d]isoxazol-3-ylamino)-acetamide TFA salt]
32 | COc1ccc(C2(O)CCC(N3CC(NC(=O)CNc4nn(CCO)c5ccc(C(F)(F)F)cc45)C3)CC2)cn1 (stereo not drawn) [Example 75, 2-[1-(2-Hydroxy-ethyl)-5-trifluoromethyl-1H-indazol-3-ylamino]-N-{1-[4-hydroxy-4-(6-methoxy-pyridin-3-yl)-cyclohexyl]-azetidin-3-yl}-acetamide]
34 | CCOc1ccc(C2(O)CCC(N3CC(NC(=O)CNc4nn(C(=O)NC(C)(C)C)c5ccc(C(F)(F)F)cc45)C3)CC2)cn1 (stereo not drawn) [Example 82, 3-[({1-[4-(6-Ethoxy-pyridin-3-yl)-4-hydroxy-cyclohexyl]-azetidin-3-ylcarbamoyl}-methyl)-amino]-5-trifluoromethyl-indazole-1-carboxylic acid tert-butylamide]
360 | CCCC1CCC(N2CC(NC(=O)CNc3noc4ccc(C(F)(F)F)cc34)C2)CC1 (stereo not drawn) [Example 14, N-[1-(4-Propyl-cyclohexyl)-azetidin-3-yl]-2-(5-trifluoromethyl-benzo[d]isoxazol-3-ylamino)-acetamide]
230 | CCOC(=O)C1CCC(N2CC(NC(=O)CNc3nn(S(C)(=O)=O)c4ccc(C(F)(F)F)cc34)C2)CC1 (stereo not drawn) [Example 99, 4-{3-[2-(1-Methanesulfonyl-5-trifluoromethyl-1H-indazol-3-ylamino)-acetylamino]-azetidin-1-yl}-cyclohexane carboxylic acid ethyl ester]
37 | Cn1nc(NCC(=O)NC2CN(C3CCC(O)(c4nccs4)CC3)C2)c2cc(C(F)C(F)(F)F)ccc21 (stereo not drawn) [Example 66, N-[1-(4-Hydroxy-4-thiazol-2-yl-cyclohexyl)-azetidin-3-yl]-2-[1-methyl-5-(1,2,2,2-tetrafluoro-ethyl)-1H-indazol-3-ylamino]-acetamide]
1600 | CC(C)NC(=O)n1nc(NCC(=O)NC2CN(C3CCC(C(C)C)CC3)C2)c2cc(C(F)(F)F)ccc21 (stereo not drawn) [Example 92, 3-({[1-(4-Isopropyl-cyclohexyl)-azetidin-3-ylcarbamoyl]-methyl}-amino)-5-trifluoromethyl-indazole-1-carboxylic acid isopropylamide]
8.6 | CCn1nc(NCC(=O)NC2CN(C3CCC(O)(c4cnc(C)s4)CC3)C2)c2cc(C(F)(F)F)ccc21 (stereo not drawn) [Example 69, 2-(1-Ethyl-5-trifluoromethyl-1H-indazol-3-ylamino)-N-{1-[4-hydroxy-4-(2-methyl-thiazol-5-yl)-cyclohexyl]-azetidin-3-yl}-acetamide]
4.8 | CN(C)c1cccc(C2(O)CCC(N3CC(NC(=O)CNc4nn(C)c5ccc(C(F)(F)F)cc45)C3)CC2)c1 (stereo not drawn) [Example 20, N-{1-[4-(3-Dimethylamino-phenyl)-4-hydroxy-cyclohexyl]-azetidin-3-yl}-2-(1-methyl-5-trifluoromethyl-1H-indazol-3-ylamino)-acetamide]
7700 | CC(C)(C)[Si](C)(C)OC1CCC(N2CC(NC(=O)CNc3noc4ccc(C(F)(F)F)cc34)C2)CC1 (stereo not drawn) [Example 8, N-{1-[4-(tert-Butyl-dimethyl-silanyloxy)-cyclohexyl]-azetidin-3-yl}-2-(5-trifluoromethyl-benzo[d]isoxazol-3-ylamino)-acetamide]
3100 | CC(C)NC(=O)n1nc(NCC(=O)NC2CN(C3CCC(C4CCCCC4)CC3)C2)c2cc(C(F)(F)F)ccc21 (stereo not drawn) [Example 93, 3-{[(1-Bicyclohexyl-4-yl-azetidin-3-ylcarbamoyl)-methyl]-amino}-5-trifluoromethyl-indazole-1-carboxylic acid isopropylamide]
